Assay results published in ChEMBL document CHEMBL1136827, “Further exploration of 1-[2-[Bis-(4-fluorophenyl)methoxy]ethyl]piperazine (GBR 12909): role of N-aromatic, N-heteroaromatic, and 3-oxygenated N-phenylpropyl substituents on affinity for the dopamine and serotonin transporter” (Bioorg Med Chem Lett, 2003).

Columns and labels:
[1] = molecular target: Sodium-dependent serotonin transporter (Rattus norvegicus, UniProt P31652); experiment: Binding affinity towards rat serotonin transporter (SERT)
Chain of Sodium-dependent serotonin transporter (P31652 whole entry): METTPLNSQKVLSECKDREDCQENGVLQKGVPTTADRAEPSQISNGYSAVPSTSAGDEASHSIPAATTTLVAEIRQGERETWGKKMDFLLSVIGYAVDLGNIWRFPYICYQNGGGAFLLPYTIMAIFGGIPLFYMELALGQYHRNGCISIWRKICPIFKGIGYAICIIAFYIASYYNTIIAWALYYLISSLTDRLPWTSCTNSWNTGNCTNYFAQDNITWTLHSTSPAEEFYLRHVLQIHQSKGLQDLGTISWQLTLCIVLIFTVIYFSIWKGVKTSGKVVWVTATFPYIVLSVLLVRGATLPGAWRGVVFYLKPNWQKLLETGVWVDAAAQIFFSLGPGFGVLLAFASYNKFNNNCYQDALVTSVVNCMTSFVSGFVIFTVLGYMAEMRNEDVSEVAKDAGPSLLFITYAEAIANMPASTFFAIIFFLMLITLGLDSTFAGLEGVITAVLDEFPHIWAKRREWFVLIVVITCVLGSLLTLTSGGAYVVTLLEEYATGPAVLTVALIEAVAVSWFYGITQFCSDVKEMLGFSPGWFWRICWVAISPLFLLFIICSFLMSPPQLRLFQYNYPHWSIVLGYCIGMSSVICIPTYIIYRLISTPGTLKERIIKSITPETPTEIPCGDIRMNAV

[2] = molecular target: Sodium-dependent dopamine transporter (Rattus norvegicus, UniProt P23977); experiment: Binding affinity towards dopamine transporter (DAT)
Chain of Sodium-dependent dopamine transporter (P23977 whole entry): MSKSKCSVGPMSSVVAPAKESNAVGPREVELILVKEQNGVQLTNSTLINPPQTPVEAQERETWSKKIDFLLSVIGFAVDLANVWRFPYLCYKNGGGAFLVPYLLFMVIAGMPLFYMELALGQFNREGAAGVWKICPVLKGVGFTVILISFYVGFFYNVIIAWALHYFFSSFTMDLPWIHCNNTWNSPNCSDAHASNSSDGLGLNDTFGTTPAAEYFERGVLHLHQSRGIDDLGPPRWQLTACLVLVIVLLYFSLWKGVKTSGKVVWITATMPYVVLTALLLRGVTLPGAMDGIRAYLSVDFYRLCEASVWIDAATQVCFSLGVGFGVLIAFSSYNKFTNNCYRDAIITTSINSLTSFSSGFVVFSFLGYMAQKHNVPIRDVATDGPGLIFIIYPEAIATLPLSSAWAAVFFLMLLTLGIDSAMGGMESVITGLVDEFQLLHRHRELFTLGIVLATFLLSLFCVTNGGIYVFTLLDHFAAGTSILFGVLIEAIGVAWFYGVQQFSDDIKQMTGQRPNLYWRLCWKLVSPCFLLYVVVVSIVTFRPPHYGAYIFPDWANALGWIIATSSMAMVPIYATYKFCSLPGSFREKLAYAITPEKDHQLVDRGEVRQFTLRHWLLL

O[C@@H]1c2ccccc2CC[C@H]1CN1CCN(CCOC(c2ccccc2)c2ccccc2)CC1
Ki [1]: 440 nM | Ki [2]: 59 nM

COc1ccc2c(c1)CC[C@@H](CN1CCN(CCOC(c3ccccc3)c3ccccc3)CC1)[C@@H]2O
Ki [1]: 93 nM | Ki [2]: 40 nM

O=C(CCN1CCN(CCOC(c2ccc(F)cc2)c2ccc(F)cc2)CC1)c1cccs1
Ki [1]: 110 nM | Ki [2]: 84 nM

O[C@@H]1c2ccccc2CC[C@H]1CN1CCN(CCOC(c2ccc(F)cc2)c2ccc(F)cc2)CC1
Ki [1]: 32 nM | Ki [2]: 18 nM

OC(CCN1CCN(CCOC(c2ccccc2)c2ccccc2)CC1)c1ccco1 (configuration not stated)
Ki [1]: 1940 nM | Ki [2]: 19 nM

O=C1CCCCC1CN1CCN(CCOC(c2ccc(F)cc2)c2ccc(F)cc2)CC1 (configuration not stated)
Ki [1]: 1130 nM | Ki [2]: 62 nM

Fc1ccc(C(OCCN2CCN(CC3=Cc4ccccc4CC3)CC2)c2ccc(F)cc2)cc1
Ki [1]: 260 nM | Ki [2]: 6.4 nM

OC1CCCC1CN1CCN(CCOC(c2ccc(F)cc2)c2ccc(F)cc2)CC1 (configuration not stated)
Ki [1]: 920 nM | Ki [2]: 32 nM

OC(CCN1CCN(CCOC(c2ccccc2)c2ccccc2)CC1)c1ccc(Br)cc1 (configuration not stated)
Ki [1]: 340 nM | Ki [2]: 7.5 nM

O=C(CCN1CCN(CCOC(c2ccccc2)c2ccccc2)CC1)c1ccco1
Ki [1]: 3300 nM | Ki [2]: 300 nM

OC(CCN1CCN(CCOC(c2ccc(F)cc2)c2ccc(F)cc2)CC1)c1cccs1 (configuration not stated)
Ki [1]: 59 nM | Ki [2]: 7.2 nM

O=C(CCN1CCN(CCOC(c2ccccc2)c2ccccc2)CC1)c1ccc(Br)cc1
Ki [1]: 2600 nM | Ki [2]: 290 nM

O=C(CCN1CCN(CCOC(c2ccc(F)cc2)c2ccc(F)cc2)CC1)c1ccco1
Ki [1]: 350 nM | Ki [2]: 72 nM

OC(CCN1CCN(CCOC(c2ccccc2)c2ccccc2)CC1)c1cccs1 (configuration not stated)
Ki [1]: 690 nM | Ki [2]: 15 nM

COc1ccc2c(c1)CCC(CN1CCN(CCOC(c3ccccc3)c3ccccc3)CC1)=C2
Ki [1]: 530 nM | Ki [2]: 39 nM

O=C(CCN1CCN(CCOC(c2ccc(F)cc2)c2ccc(F)cc2)CC1)c1cccc(F)c1
Ki [1]: 220 nM | Ki [2]: 89 nM

O=C1CCCCCC1CN1CCN(CCOC(c2ccccc2)c2ccccc2)CC1 (configuration not stated)
Ki [1]: 4100 nM | Ki [2]: 270 nM

OC1CCCCC1CN1CCN(CCOC(c2ccccc2)c2ccccc2)CC1 (configuration not stated)
Ki [1]: 3300 nM | Ki [2]: 210 nM

COc1ccc2c(c1)CC[C@@H](CN1CCN(CCOC(c3ccc(F)cc3)c3ccc(F)cc3)CC1)[C@H]2O
Ki [1]: 3 nM | Ki [2]: 7.3 nM

OC(CCN1CCN(CCOC(c2ccc(F)cc2)c2ccc(F)cc2)CC1)c1cccc(F)c1 (configuration not stated)
Ki [1]: 53 nM | Ki [2]: 3.9 nM

COc1ccc2c(c1)CC[C@@H](CN1CCN(CCOC(c3ccc(F)cc3)c3ccc(F)cc3)CC1)[C@@H]2O
Ki [1]: 3 nM | Ki [2]: 18 nM

OC1CCCC1CN1CCN(CCOC(c2ccccc2)c2ccccc2)CC1 (configuration not stated)
Ki [1]: 2200 nM | Ki [2]: 170 nM

COc1ccc2c(c1)CCC(CN1CCN(CCOC(c3ccccc3)c3ccccc3)CC1)C2=O (configuration not stated)
Ki [1]: 70 nM | Ki [2]: 78 nM

COc1ccc2c(c1)CC[C@@H](CN1CCN(CCOC(c3ccccc3)c3ccccc3)CC1)[C@H]2O
Ki [1]: 100 nM | Ki [2]: 32 nM

OC(CCN1CCN(CCOC(c2ccc(F)cc2)c2ccc(F)cc2)CC1)c1ccco1 (configuration not stated)
Ki [1]: 150 nM | Ki [2]: 10 nM

COc1ccc2c(c1)CCC(CN1CCN(CCOC(c3ccc(F)cc3)c3ccc(F)cc3)CC1)=C2
Ki [1]: 57 nM | Ki [2]: 14 nM

O[C@H]1c2ccccc2CC[C@H]1CN1CCN(CCOC(c2ccc(F)cc2)c2ccc(F)cc2)CC1
Ki [1]: 30 nM | Ki [2]: 1.3 nM

O=C1CCCCCC1CN1CCN(CCOC(c2ccc(F)cc2)c2ccc(F)cc2)CC1 (configuration not stated)
Ki [1]: 530 nM | Ki [2]: 49 nM

O=C1CCCC1CN1CCN(CCOC(c2ccc(F)cc2)c2ccc(F)cc2)CC1 (configuration not stated)
Ki [1]: 970 nM | Ki [2]: 84 nM

O=C1c2ccccc2CCC1CN1CCN(CCOC(c2ccccc2)c2ccccc2)CC1 (configuration not stated)
Ki [1]: 1050 nM | Ki [2]: 390 nM

O=C1CCCC1CN1CCN(CCOC(c2ccccc2)c2ccccc2)CC1 (configuration not stated)
Ki [1]: 5700 nM

O=C(CCN1CCN(CCOC(c2ccccc2)c2ccccc2)CC1)c1cccc(F)c1
Ki [1]: 1360 nM | Ki [2]: 260 nM

COc1ccc2c(c1)CCC(CN1CCN(CCOC(c3ccc(F)cc3)c3ccc(F)cc3)CC1)C2=O (configuration not stated)
Ki [1]: 3 nM | Ki [2]: 22 nM

O=C(CCN1CCN(CCOC(c2ccc(F)cc2)c2ccc(F)cc2)CC1)c1ccc(Br)cc1
Ki [1]: 480 nM | Ki [2]: 37 nM

OC(CCN1CCN(CCOC(c2ccc(F)cc2)c2ccc(F)cc2)CC1)c1ccc(Br)cc1 (configuration not stated)
Ki [1]: 50 nM | Ki [2]: 2.5 nM

O=C1c2ccccc2CCC1CN1CCN(CCOC(c2ccc(F)cc2)c2ccc(F)cc2)CC1 (configuration not stated)
Ki [1]: 110 nM | Ki [2]: 57 nM

OC1CCCCCC1CN1CCN(CCOC(c2ccccc2)c2ccccc2)CC1 (configuration not stated)
Ki [1]: 3900 nM | Ki [2]: 210 nM

O[C@H]1c2ccccc2CC[C@H]1CN1CCN(CCOC(c2ccccc2)c2ccccc2)CC1
Ki [1]: 500 nM | Ki [2]: 35 nM

OC1CCCCCC1CN1CCN(CCOC(c2ccc(F)cc2)c2ccc(F)cc2)CC1 (configuration not stated)
Ki [1]: 480 nM | Ki [2]: 22 nM

O=C1CCCCC1CN1CCN(CCOC(c2ccccc2)c2ccccc2)CC1 (configuration not stated)
Ki [1]: 3300 nM | Ki [2]: 250 nM

OC(CCN1CCN(CCOC(c2ccccc2)c2ccccc2)CC1)c1cccc(F)c1 (configuration not stated)
Ki [1]: 910 nM | Ki [2]: 4.1 nM

OC1CCCCC1CN1CCN(CCOC(c2ccc(F)cc2)c2ccc(F)cc2)CC1 (configuration not stated)
Ki [1]: 580 nM | Ki [2]: 37 nM

O=C(CCN1CCN(CCOC(c2ccccc2)c2ccccc2)CC1)c1cccs1
Ki [1]: 1240 nM | Ki [2]: 190 nM

C1=C(CN2CCN(CCOC(c3ccccc3)c3ccccc3)CC2)CCc2ccccc21
Ki [1]: 1360 nM | Ki [2]: 38 nM
